From ChEMBL document CHEMBL1201862, “PubChem BioAssay data set” (2004)
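Step 1: Grow cells in 96-well plates. Step 2: Expose to compound for 48 hours at 5 concentrations. Step 3: Interpolate endpoints linearly; if unreached, use highest concentration. At the GI50, growth is halved.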 Activity calls are given as the source filed them. Cut-off read from the data, not from the text of the source: active = GI50 up to about 1.1 µM and inactive = higher.

Key:
Assay in all cases: growth of human tumour cells (NCI), 48 h
MDA-N = system: MDA-N
A549 = system: A549
SK-MEL-28 = system: SK-MEL-28
EKVX = system: EKVX
MDA-MB-231 = system: MDA-MB-231
NCI-H522 = system: NCI-H522
SK-MEL-5 = system: SK-MEL-5
A498 = system: A498
HT-29 = system: HT-29
786-0 = system: 786-0
BT-549 = system: BT-549
UACC-62 = system: UACC-62
Hs-578T = system: Hs-578T
M14 = system: M14
COLO 205 = system: COLO 205
HOP-92 = system: HOP-92
SNB-19 = system: SNB-19
CAKI-1 = system: CAKI-1
HOP-62 = system: HOP-62
DU-145 = system: DU-145
SK-OV-3 = system: SK-OV-3
HL-60 = system: HL-60
ACHN = system: ACHN
NCI-H23 = system: NCI-H23
TK-10 = system: TK-10
MOLT-4 = system: MOLT-4
MCF7 = system: MCF7
IGROV-1 = system: IGROV-1
HCC 2998 = system: HCC 2998
SN12C = system: SN12C
SF-539 = system: SF-539
OVCAR-8 = system: OVCAR-8
OVCAR-3 = system: OVCAR-3
Malme-3M = system: Malme-3M
OVCAR-5 = system: OVCAR-5
NCI-H460 = system: NCI-H460
K562 = system: K562
U-251 = system: U-251
HCT-116 = system: HCT-116
RXF 393 = system: RXF 393
KM12 = system: KM12
UO-31 = system: UO-31
T47D = system: T47D
CCRF-CEM = system: CCRF-CEM
MDA-MB-435 = system: MDA-MB-435
SNB-75 = system: SNB-75
PC-3 = system: PC-3
NCI-H226 = system: NCI-H226
SF-295 = system: SF-295
SR = system: SR
UACC-257 = system: UACC-257
OVCAR-4 = system: OVCAR-4
SW-620 = system: SW-620
SF-268 = system: SF-268
HCT-15 = system: HCT-15
NCI/ADR-RES = system: NCI/ADR-RES
LOX IMVI = system: LOX IMVI
RPMI-8226 = system: RPMI-8226
SK-MEL-2 = system: SK-MEL-2

SMILES: CCNC(=O)Nc1cccc(C)n1
- GI50 (MDA-N): > 100 µM (inactive)
- GI50 (A549): > 100 µM (inactive)
- GI50 (SK-MEL-28): > 100 µM (inactive)
- GI50 (EKVX): 15.7 µM (inactive)
- GI50 (MDA-MB-231): > 100 µM (inactive)
- GI50 (NCI-H522): > 100 µM (inactive)
- GI50 (SK-MEL-5): > 100 µM (inactive)
- GI50 (A498): > 100 µM (inactive)
- GI50 (HT-29): > 100 µM (inactive)
- GI50 (786-0): > 100 µM (inactive)
- GI50 (BT-549): > 100 µM (inactive)
- GI50 (UACC-62): 99.1 µM (inactive)
- GI50 (Hs-578T): > 100 µM (inactive)
- GI50 (M14): > 100 µM (inactive)
- GI50 (COLO 205): > 100 µM (inactive)
- GI50 (HOP-92): > 100 µM (inactive)
- GI50 (SNB-19): > 100 µM (inactive)
- GI50 (CAKI-1): > 100 µM (inactive)
- GI50 (HOP-62): 91.4 µM (inactive)
- GI50 (DU-145): > 100 µM (inactive)
- GI50 (SK-OV-3): > 100 µM (inactive)
- GI50 (HL-60): 67.8 µM (inactive)
- GI50 (ACHN): > 100 µM (inactive)
- GI50 (NCI-H23): > 100 µM (inactive)
- GI50 (TK-10): > 100 µM (inactive)
- GI50 (MOLT-4): > 100 µM (inactive)
- GI50 (MCF7): > 100 µM (inactive)
- GI50 (IGROV-1): > 100 µM (inactive)
- GI50 (HCC 2998): > 100 µM (inactive)
- GI50 (SN12C): > 100 µM (inactive)
- GI50 (SF-539): > 100 µM (inactive)
- GI50 (OVCAR-8): > 100 µM (inactive)
- GI50 (OVCAR-3): > 100 µM (inactive)
- GI50 (Malme-3M): > 100 µM (inactive)
- GI50 (OVCAR-5): > 100 µM (inactive)
- GI50 (NCI-H460): > 100 µM (inactive)
- GI50 (K562): > 100 µM (inactive)
- GI50 (U-251): > 100 µM (inactive)
- GI50 (HCT-116): > 100 µM (inactive)
- GI50 (RXF 393): > 100 µM (inactive)
- GI50 (KM12): > 100 µM (inactive)
- GI50 (UO-31): > 100 µM (inactive)
- GI50 (T47D): > 100 µM (inactive)
- GI50 (CCRF-CEM): > 100 µM (inactive)
- GI50 (MDA-MB-435): > 100 µM (inactive)
- GI50 (SNB-75): 68.9 µM (inactive)
- GI50 (PC-3): > 100 µM (inactive)
- GI50 (NCI-H226): > 100 µM (inactive)
- GI50 (SF-295): > 100 µM (inactive)
- GI50 (SR): > 100 µM (inactive)
- GI50 (UACC-257): > 100 µM (inactive)
- GI50 (OVCAR-4): > 100 µM (inactive)
- GI50 (SW-620): > 100 µM (inactive)
- GI50 (SF-268): > 100 µM (inactive)

SMILES: CC(C)(C)c1cc(C(C)(C)C)c(SSc2c(C(C)(C)C)cc(C(C)(C)C)c(O)c2O)c(O)c1O
- GI50 (MDA-N): 10.4 µM (inactive)
- GI50 (A549): 6.75 µM (inactive)
- GI50 (SK-MEL-28): 16.3 µM (inactive)
- GI50 (HCT-15): 6.19 µM
- GI50 (EKVX): 16.4 µM (inactive)
- GI50 (MDA-MB-231): 14.7 µM (inactive)
- GI50 (NCI-H522): 3.92 µM (inactive)
- GI50 (SK-MEL-5): 11.7 µM (inactive)
- GI50 (A498): 14 µM (inactive)
- GI50 (HT-29): 13.2 µM (inactive)
- GI50 (786-0): 6.4 µM (inactive)
- GI50 (BT-549): 13.8 µM (inactive)
- GI50 (UACC-62): 5.7 µM (inactive)
- GI50 (Hs-578T): 10.5 µM (inactive)
- GI50 (M14): 11.7 µM (inactive)
- GI50 (COLO 205): 11.5 µM (inactive)
- GI50 (HOP-92): 17.7 µM (inactive)
- GI50 (SNB-19): 11.7 µM (inactive)
- GI50 (CAKI-1): 11.5 µM (inactive)
- GI50 (HL-60): 3.46 µM (inactive)
- GI50 (ACHN): 11.4 µM (inactive)
- GI50 (NCI-H23): 10.3 µM (inactive)
- GI50 (NCI/ADR-RES): 19.1 µM (inactive)
- GI50 (MOLT-4): 2.67 µM (inactive)
- GI50 (LOX IMVI): 9.64 µM (inactive)
- GI50 (MCF7): 10.3 µM (inactive)
- GI50 (IGROV-1): 12 µM (inactive)
- GI50 (SN12C): 10.9 µM (inactive)
- GI50 (RPMI-8226): 9.29 µM (inactive)
- GI50 (OVCAR-8): 12.3 µM (inactive)
- GI50 (Malme-3M): 21.4 µM (inactive)
- GI50 (OVCAR-5): 15.8 µM (inactive)
- GI50 (NCI-H460): 3.89 µM (inactive)
- GI50 (SK-MEL-2): 14.4 µM (inactive)
- GI50 (K562): 6.43 µM (inactive)
- GI50 (U-251): 10.5 µM (inactive)
- GI50 (HCT-116): 10.9 µM (inactive)
- GI50 (RXF 393): 16.4 µM (inactive)
- GI50 (KM12): 12.6 µM (inactive)
- GI50 (UO-31): 6.18 µM (inactive)
- GI50 (T47D): 4.32 µM (inactive)
- GI50 (CCRF-CEM): 2.5 µM (inactive)
- GI50 (MDA-MB-435): 4.3 µM (inactive)
- GI50 (SNB-75): 14.8 µM (inactive)
- GI50 (PC-3): 12.4 µM (inactive)
- GI50 (NCI-H226): 15 µM (inactive)
- GI50 (SR): 2.94 µM (inactive)
- GI50 (UACC-257): 9.95 µM (inactive)
- GI50 (OVCAR-4): 3.55 µM (inactive)
- GI50 (SW-620): 4.99 µM (inactive)
- GI50 (SF-268): 10.1 µM (inactive)

SMILES: CC1(C)[C@@H]2C[C@H]1c1cnc(-c3ccccn3)cc1C2CCCCC[C@@H]1c2cc(-c3ccccn3)ncc2[C@@H]2C[C@H]1C2(C)C (stereo partly specified)
- GI50 (MDA-N): 1.36 µM (inactive)
- GI50 (A549): 0.869 µM (active)
- GI50 (SK-MEL-28): 2.29 µM (inactive)
- GI50 (HCT-15): 5.9 µM
- GI50 (EKVX): 2.56 µM (inactive)
- GI50 (MDA-MB-231): 8.15 µM (inactive)
- GI50 (NCI-H522): 1.71 µM (inactive)
- GI50 (SK-MEL-5): 4.18 µM (inactive)
- GI50 (A498): 3.5 µM (inactive)
- GI50 (HT-29): 0.759 µM (active)
- GI50 (786-0): 0.493 µM (active)
- GI50 (BT-549): 14.1 µM (inactive)
- GI50 (UACC-62): 0.946 µM (active)
- GI50 (M14): 1.61 µM (inactive)
- GI50 (COLO 205): 0.578 µM (active)
- GI50 (SNB-19): 1.78 µM (inactive)
- GI50 (CAKI-1): 0.628 µM (active)
- GI50 (HOP-62): 1.42 µM (inactive)
- GI50 (DU-145): 1.41 µM (inactive)
- GI50 (HL-60): 0.426 µM (active)
- GI50 (ACHN): 1.82 µM (inactive)
- GI50 (NCI-H23): 1.82 µM (inactive)
- GI50 (TK-10): > 49.2 µM (inactive)
- GI50 (NCI/ADR-RES): 25.6 µM (inactive)
- GI50 (MOLT-4): 0.357 µM (active)
- GI50 (LOX IMVI): 0.625 µM (active)
- GI50 (MCF7): 0.809 µM (active)
- GI50 (IGROV-1): 1.63 µM (inactive)
- GI50 (HCC 2998): 7.1 µM (inactive)
- GI50 (SN12C): 1.53 µM (inactive)
- GI50 (RPMI-8226): 2.51 µM (inactive)
- GI50 (SF-539): 0.199 µM (active)
- GI50 (OVCAR-8): 1.88 µM (inactive)
- GI50 (OVCAR-3): 0.404 µM (active)
- GI50 (Malme-3M): 3.19 µM (inactive)
- GI50 (OVCAR-5): > 20.3 µM (inactive)
- GI50 (NCI-H460): 1.99 µM (inactive)
- GI50 (SK-MEL-2): 7.1 µM (inactive)
- GI50 (K562): 0.473 µM (active)
- GI50 (U-251): 0.897 µM (active)
- GI50 (HCT-116): 0.489 µM (active)
- GI50 (RXF 393): 0.745 µM (active)
- GI50 (KM12): 1.48 µM (inactive)
- GI50 (UO-31): 0.853 µM (active)
- GI50 (T47D): 1.69 µM (inactive)
- GI50 (CCRF-CEM): 0.502 µM (active)
- GI50 (MDA-MB-435): 1.38 µM (inactive)
- GI50 (SNB-75): 0.74 µM (active)
- GI50 (PC-3): 1.32 µM (inactive)
- GI50 (NCI-H226): 1.23 µM (inactive)
- GI50 (SF-295): 0.871 µM (active)
- GI50 (SR): 0.653 µM (active)
- GI50 (UACC-257): 0.655 µM (active)
- GI50 (OVCAR-4): 0.384 µM (active)
- GI50 (SW-620): 0.83 µM (active)
- GI50 (SF-268): 0.687 µM (active)
